Reference: patent US20050119281A1, “Powder composition comprising zaleplon of defined particle size distribution and pharmaceutical products made therefrom” (Biogal Gyogyszergyar Rt, priority 2002, published 2005)

Test: Particle size distribution of zaleplon particles by laser diffraction (Malvern Mastersizer)
Assay type: physicochemical
Conditions: suspended in hexane with 1% Tween 80, sonicated 120 seconds
Experimental: In accordance with the invention, the size distribution of zaleplon particles is determined by laser diffraction. Our method of determining the size of zaleplon particles used a Malvern™ Mastersizer laser diffraction instrument. Samples of the zaleplon were suspended in hexane containing a surfactant, 1% Tween® 80. The suspensions were mixed and then sonicated for 120 seconds to thoroughly disperse the zaleplon particles. The dispersion was then circulated in the flow cell of the Malvern Mastersizer for two minutes before particle size measurements were taken.

SMILES: CCN(C(C)=O)c1cccc(-c2ccnc3c(C#N)cnn23)c1 [milled zaleplon, N-[3-(3-cyanopyrazolo[1,5-a]pyrimidin-7-yl)phenyl]-N-ethylacetamide]
- diameter that 10% of the particles are equal to or less than: 8.3 μm
- diameter that 90% of the particles are equal to or less than: 84.6 μm
- median particle size: 37.0 μm

SMILES: CCN(C(C)=O)c1cccc(-c2ccnc3c(C#N)cnn23)c1 [micronized zaleplon, N-[3-(3-cyanopyrazolo[1,5-a]pyrimidin-7-yl)phenyl]-N-ethylacetamide]
- diameter that 90% of the particles are equal to or less than: 15.1 μm
- median particle size: 6.3 μm

SMILES: CCN(C(C)=O)c1cccc(-c2ccnc3c(C#N)cnn23)c1 [Zaleplon, N-[3-(3-cyanopyrazolo[1,5-a]pyrimidin-7-yl)phenyl]-N-ethylacetamide]
- diameter that 10% of the particles are equal to or less than: 14 μm
- diameter that 90% of the particles are equal to or less than: 134 μm
- median particle size: 55 μm
